In patent US20250288583A1, “Treatment of Mucus Hypersecretion” (priority 2024, published 2025):
Entries after “also recorded” stand apart in the source; their conditions may differ.

Assays:
[1] = molecular target: T1, TRPA1 (Homo sapiens, UniProt O75762); test: TRPA1 specificity assay in transfected cells; type: cell-based; conditions: FIG. 5; mustard oil positive control
T1 construct: expressed in transfected cells

[2] = system: philtrum skin; test: Cooling duration bioassay on philtrum skin; type: in vivo, human
Excerpt: FIG. 1. Comparison of cooling duration of various p-menthanecarboxamide analogs on philtrum skin versus ocular margins. The philtrum skin is keratinized, but the ocular margins are not. The test substances numbered 1 to 11 are: D-Ala-OiPr, Gly-OiPr, D-Ala-OEt, D-Ala-OMe, D-Ala-GlynPr, GlynPr, D-Ala-OnBu, GlynBu, GlyOEt, L-Ala-OEt, and N-Me-D-Ala-OEt, respectively. Two outliers (1 and 2) were identified as preferred embodiments because they preferentially cool the ocular margins. The nasal cavity surfaces like the ocular margins are not keratinized.
Cooling agents have been assayed in various ways depending on intended use. For example, for the skin the test substance can be applied on philtrum skin, using descriptions of coolness on a scale of 0 to 3. For the ocular surface, the active ingredient can be applied to the closed eyelids using a wipe. In the oral cavity, drug applications are on the posterior dorsal surface of the tongue. For the oropharyngeal surface, the cooling agent may be applied as an orally disintegrating tablet. The ability of a cooling agent to antagonize a noxious stimuli may also be tested, using nociception from citric acid or chili pepper sauce. Responses are usually measured using a Visual Analog Scale with a numerical rating. For nasal responses, however, such procedures have not been standardized. Some endpoints to consider are open and comfortable breathing, the presence or absence of sniffles, and the secretion of phlegm.

[3] = system: nasal cavity; test: Gravimetric measurement of nasal secretions in a subject with rhinitis after NasoNeb rinsing; type: in vivo, human; conditions: NasoNeb rinse 5 sec at t=0, 2, 5 hr, D-Ala-OiPr 2 mg/mL, GlyOiPr 3 mg/mL; for Weight of individual blowouts of nasal secretions (average ± s.e.m.): vehicle 0.40±0.03 g; for 10-hr nasal secretion (avg. ± s.e.m): vehicle 3.53±0.44 g
Procedure: A top-loading balance, sensitive to 1 mg, was used to measure phlegm secretions from the nose. A pre-weighed tissue paper was tared to zero, and after blowing into the tissue, the amount of exudate was recorded from the balance display. This measurement is an objective sign of nasal inflammation. Microbalances, sensitive to 1 mg, are now available online for less than $20. Conventional laboratory balances with the same capabilities are listed for $2000+ each but should now be obsolete. The convenience of an inexpensive method for quantifying phlegm output as an indicator of nasal pathology is part of the inventive steps.
FIG. 9. Inhibition of nasal secretions in a subject with rhinitis by topical administration of the preferred embodiments D-Ala-OiPr and GlyOiPr with a Nasoneb® apparatus. Rinsing of GlyOiPr and D-Ala-OiPr (dissolved 3 mg/ml and 2 mg/mL, respectively, in 1% ethanol and 2% polysorbate 80) was for 5 sec at t=0, 2, and 5 hr. Secretions were recorded for 10-15 hr per day. The 10-hr secretion (avg.±s.e.m) was vehicle 3.53±0.44 g, D-Ala-OiPr 1.70±0.27 g, GlyOiPr 1.32±0.32 g, with n=6, 5, 5 observations per group, respectively.
FIG. 10. Weights of individual blowouts of nasal secretions in a subject with rhinitis after topical administration of D-Ala-OiPr and GlyOiPr with a Nasoneb® apparatus. The vehicle or test substances were rinsed into the nasal cavity (0 mg/mL, 2 mg/mL and 3 mg/mL, respectively, for 5 sec at t=0, 2, and 5 hr). The data points are for individual “blowouts” from the nose, measured with tissue paper and balance. The data are plotted on a semi-log scale, so zero values are not shown. The average #s.e.m. for blowouts were: vehicle 0.40±0.03 g, D-Ala-OiPr 0.19±0.02 g, GlyOiPr 0.19±0.02 g, with n=70, 44, 42 observations per group, respectively.
In the first experimental step, the phlegm secretion must be accurately measured. That is, it is necessary to show what is “blown out” of the nose in patients with rhinitis (FIG. 8). The treatment goal is to reduce the accumulation of dense, slimy, viscous phlegm, which will otherwise ooze out of the nasal cavity. In practice, it was discovered that if treatment can reduce individual blowouts to <0.25 g/event, the subject with rhinitis becomes essentially “disease-free” and is able to have normal daily activities and sleep well at night. […] The top-loading microbalance method for quantifying phlegm weight is an excellent monitor of rhinitis intensity.
FIG. 9. […] The data points represent secretions recorded for 10-15 hr per day. These points were fitted by linear regression (GraphPad Prism), and the 10-hr secretion measured (avg.±s.e.m) as vehicle 3.53±0:44 g, D-Ala-OiPr 1.700:27 g; GlyOiPr 1.32±0.32 g, with n=6, 5, 5 observations per group, respectively. […]

T1 sequence (O75762 whole entry, species assumed): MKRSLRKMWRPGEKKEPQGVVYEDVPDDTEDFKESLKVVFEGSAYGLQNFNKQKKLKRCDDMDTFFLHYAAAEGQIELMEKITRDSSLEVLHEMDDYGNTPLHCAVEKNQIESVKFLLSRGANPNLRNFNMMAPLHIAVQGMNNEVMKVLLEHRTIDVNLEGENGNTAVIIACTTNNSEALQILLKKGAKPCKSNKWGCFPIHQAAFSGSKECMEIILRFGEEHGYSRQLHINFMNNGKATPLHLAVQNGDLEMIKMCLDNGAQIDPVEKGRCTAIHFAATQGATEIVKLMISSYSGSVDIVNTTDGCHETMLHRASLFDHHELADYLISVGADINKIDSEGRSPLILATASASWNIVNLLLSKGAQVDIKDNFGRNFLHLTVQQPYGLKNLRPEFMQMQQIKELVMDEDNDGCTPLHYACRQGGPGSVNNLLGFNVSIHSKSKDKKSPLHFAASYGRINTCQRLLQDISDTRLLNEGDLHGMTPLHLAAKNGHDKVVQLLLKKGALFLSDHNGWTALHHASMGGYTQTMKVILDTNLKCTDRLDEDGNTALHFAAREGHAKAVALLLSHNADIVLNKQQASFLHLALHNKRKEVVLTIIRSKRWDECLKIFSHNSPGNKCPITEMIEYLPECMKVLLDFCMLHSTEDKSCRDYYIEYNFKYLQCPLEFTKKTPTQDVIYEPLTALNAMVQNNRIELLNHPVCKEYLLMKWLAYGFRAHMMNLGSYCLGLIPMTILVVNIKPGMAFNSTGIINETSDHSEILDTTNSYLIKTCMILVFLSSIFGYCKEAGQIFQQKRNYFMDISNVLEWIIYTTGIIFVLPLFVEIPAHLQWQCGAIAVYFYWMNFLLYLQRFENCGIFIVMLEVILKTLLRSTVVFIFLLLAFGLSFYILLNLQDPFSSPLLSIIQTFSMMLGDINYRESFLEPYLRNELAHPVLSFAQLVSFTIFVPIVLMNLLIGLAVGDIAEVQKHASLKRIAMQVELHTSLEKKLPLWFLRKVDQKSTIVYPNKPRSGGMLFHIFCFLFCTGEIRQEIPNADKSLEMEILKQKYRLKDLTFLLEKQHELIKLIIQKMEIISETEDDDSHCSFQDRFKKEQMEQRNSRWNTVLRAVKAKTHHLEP

Structure (SMILES)	Response of cells transfected with TRPA1 [1]	Philtrum Skin ([2]; Table 7, Gly esters) [min]	Weight of individual blowouts of nasal secretions (average ± s.e.m.) [3] [g]	10-hr nasal secretion (avg. ± s.e.m) [3] [g]	Philtrum Skin ([2]; Table 6, cooling duration, keratinized skin) [min]
CC(C)OC(=O)CNC(=O)[C@@H]1C[C@H](C)CC[C@H]1C(C)C [GlyOiPr, [((1R,2S,5R)-2-isopropyl-5-methyl-cyclohexanecarbonyl)-amino]-acetic acid isopropyl ester]	do not respond; also recorded: activates TRPM8 but not TRPV1 or TRPA1	27	0.19 ± 0.02	1.32±0.32	–
CC(C)OC(=O)[C@@H](C)NC(=O)[C@@H]1C[C@H](C)CC[C@H]1C(C)C [D-Ala-OiPr, (R)-2-[((1R,2S,5R)-2-isopropyl-5-methyl-cyclohexanecarbonyl)amino]-propionic acid i-propyl ester]	inactive	–	0.19 ± 0.02	1.70±0.27	34
